# Laboratory results from patent US20230346809A1, “USE OF CANNABIDIVARIN IN THE TREATMENT OF SEIZURES ASSOCIATED WITH RARE EPILEPSY SYNDROMES RELATED TO GENETIC ABNORMALITIES” (GW Research Limited, priority 2020, published 2023).
# Entries after “also recorded” stand apart in the source; their conditions may differ.
# What was measured:
# [1] = system: patients with Dravet and Lennox-Gastaut syndrome; details: purified pharmaceutical formulation of CBD; three trials; cited from earlier work
# [2] = system: seizures associated with Rett syndrome; experiment: Open label, phase I trial of CBDV in patients diagnosed with Rett syndrome (caregiver seizure diary); assay type: in vivo, human; set-up: Mean seizure frequency reduction: concentration or dose not given beside the values; details: for Mean seizure frequency reduction: versus baseline
# Excerpt: Example 1 below describes the use of a botanically derived purified CBDV in an open label, phase I trial to investigate the clinical efficacy and safety of purified pharmaceutical cannabidivarin formulation (CBDV) in the treatment of patients diagnosed with Rett syndrome.
# Subjects were required to be on one or more AEDs at stable doses for a minimum of 4 weeks prior to baseline. Subjects had to have been diagnosed with intractable epilepsy: failed adequate trial of two, or more, standard anticonvulsants, and four or more quantifiable seizures less than 8 weeks prior to screening, and two or more quantifiable seizures in prospective baseline phase.
# Patients were administered botanically derived purified CBDV in a 50 mg/mL sesame oil-based solution which was titrated to an initial dose of 2.5 milligrams per kilogram per day (mg/kg/day). Doses were then increased to a goal of 10 mg/kg/day.
# There were five patients in this study, and each received CBDV for various durations of time. Modifications were made to concomitant AEDs as per clinical indication.
# Seizure frequency, intensity, and duration were recorded by caregivers in a diary during a baseline period of at least 28 days. Changes in seizure frequency relative to baseline were calculated after at least 2 weeks and at defined timepoints of treatment.
# Patients may be defined as responders if they had more than 50% reduction in seizure frequency compared to baseline. The percent change of seizure frequency for the end of the treatment period was calculated as follows: […]
# [3] = system: mouse model of Rett syndrome; details: cited from earlier work
# [4] = system: pilocarpine-induced seizures; details: CBDV alone; Hill et al. 2012; cited from earlier work
# [5] = system: methyl-6, 7-dimethoxy-4-ethyl-beta-carboline-3-carboxylate (DMCM) model; details: postnatal day 10 animals; cited from earlier work
# [6] = system: maximal electroshock model; details: postnatal day 10 animals; cited from earlier work
# [7] = system: MeCP2 KO mouse model of Rett Syndrome; details: WO 2017/178807; cited from earlier work
# [8] = Patient 1, total over 14 months of CBDV, baseline 0
# [9] = Patient 2, total over 11 months of CBDV, baseline 0
# [10] = Patient 3, total over 12 months of CBDV, baseline 0
# [11] = Patient 4, total over 12.5 months of CBDV, baseline 0
# [12] = Patient 5, total over 11 months of CBDV, baseline 0
smiles,measurement,setting,value
"C=C(C)[C@@H]1CCC(C)=C[C@H]1c1c(O)cc(CCCCC)cc1O [CBD, Cannabidiol]",Efficacy in randomized control trials,[1],showed efficacy
"C=C(C)[C@@H]1CCC(C)=C[C@H]1c1c(O)cc(CCC)cc1O [CBDV, cannabidivarin]",Mean seizure frequency reduction,"[2]; Patient 1, 14 months of CBDV",52.5%
same,Total seizure frequency,"[2]; Patient 1, 14 months of CBDV, baseline 32.0/month",15.2/month
same,"Focal seizures with impairment, Non-motor: seizure count",[2]; [8],2 /14 months
same,"Generalised seizures, Motor other: seizure count",[2]; [8],8 /14 months
same,"Generalised seizures, Motor tonic-clonic: seizure count",[2]; [8],0 /14 months
same,Non-motor: seizure count,[2]; [8],0 /14 months
same,Other: seizure count,[2]; [8],1 /14 months
same,"Unknown onset, Motor other: seizure count",[2]; [8],3 /14 months
same,"Unknown onset, Motor tonic-clonic: seizure count",[2]; [8],7 /14 months
same,"Focal seizures with impairment, Motor: seizure count","[2]; Patient 1, total over 14 months of CBDV, baseline 32",192 /14 months
same,Mean seizure frequency reduction,"[2]; Patient 2, 11 months of CBDV",79.4%
same,Total seizure frequency,"[2]; Patient 2, 11 months of CBDV, baseline 35.0/month",7.2/month
same,"Focal seizures with impairment, Motor: seizure count",[2]; [9],0 /11 months
same,"Generalised seizures, Motor other: seizure count",[2]; [9],0 /11 months
same,"Generalised seizures, Motor tonic-clonic: seizure count",[2]; [9],0 /11 months
same,Non-motor: seizure count,[2]; [9],0 /11 months
same,"Unknown onset, Motor other: seizure count",[2]; [9],0 /11 months
same,"Unknown onset, Motor tonic-clonic: seizure count",[2]; [9],0 /11 months
same,Other: seizure count,"[2]; Patient 2, total over 11 months of CBDV, baseline 3",18 /11 months
same,"Focal seizures with impairment, Non-motor: seizure count","[2]; Patient 2, total over 11 months of CBDV, baseline 32",61 /11 months
same,Mean seizure frequency reduction,"[2]; Patient 3, 12 months of CBDV",90.0%
same,Total seizure frequency,"[2]; Patient 3, 12 months of CBDV, baseline 6.0/month",0.6/month
same,"Focal seizures with impairment, Non-motor: seizure count",[2]; [10],0 /12 months
same,"Generalised seizures, Motor other: seizure count",[2]; [10],0 /12 months
same,Non-motor: seizure count,[2]; [10],0 /12 months
same,Other: seizure count,[2]; [10],0 /12 months
same,"Unknown onset, Motor other: seizure count",[2]; [10],0 /12 months
same,"Unknown onset, Motor tonic-clonic: seizure count",[2]; [10],0 /12 months
same,"Focal seizures with impairment, Motor: seizure count","[2]; Patient 3, total over 12 months of CBDV, baseline 1",3 /12 months
same,"Generalised seizures, Motor tonic-clonic: seizure count","[2]; Patient 3, total over 12 months of CBDV, baseline 5",4 /12 months
same,Mean seizure frequency reduction,"[2]; Patient 4, 12.5 months of CBDV",5.7%
same,Total seizure frequency,"[2]; Patient 4, 12.5 months of CBDV, baseline 7.0/month",6.6/month
same,"Focal seizures with impairment, Non-motor: seizure count",[2]; [11],0 /12.5 months
same,"Generalised seizures, Motor tonic-clonic: seizure count",[2]; [11],0 /12.5 months
same,Non-motor: seizure count,[2]; [11],0 /12.5 months
same,Other: seizure count,[2]; [11],6 /12.5 months
same,"Unknown onset, Motor other: seizure count",[2]; [11],0 /12.5 months
same,"Unknown onset, Motor tonic-clonic: seizure count",[2]; [11],0 /12.5 months
same,"Focal seizures with impairment, Motor: seizure count","[2]; Patient 4, total over 12.5 months of CBDV, baseline 3",73 /12.5 months
same,"Generalised seizures, Motor other: seizure count","[2]; Patient 4, total over 12.5 months of CBDV, baseline 4",4 /12.5 months
same,Mean seizure frequency reduction,"[2]; Patient 5, 11 months of CBDV",98.1%
same,Total seizure frequency,"[2]; Patient 5, 11 months of CBDV, baseline 371.0/month",7.2/month
same,"Focal seizures with impairment, Motor: seizure count",[2]; [12],0 /11 months
same,"Focal seizures with impairment, Non-motor: seizure count",[2]; [12],0 /11 months
same,Non-motor: seizure count,[2]; [12],6 /11 months
same,Other: seizure count,[2]; [12],0 /11 months
same,"Unknown onset, Motor tonic-clonic: seizure count",[2]; [12],0 /11 months
same,"Generalised seizures, Motor other: seizure count","[2]; Patient 5, total over 11 months of CBDV, baseline 18",18 /11 months
same,"Generalised seizures, Motor tonic-clonic: seizure count","[2]; Patient 5, total over 11 months of CBDV, baseline 25",38 /11 months
same,"Unknown onset, Motor other: seizure count","[2]; Patient 5, total over 11 months of CBDV, baseline 328",17 /11 months
same,"Decrease of seizure frequency rates, maximum",[2]; across listed seizure types,up to 98%
same,"Reduction in seizures over the period of treatment, range over patients","[2]; all five patients, 11-14 months of CBDV",5.7-98.1%
same,Patients with more than 50% reduction in seizure frequency compared to baseline (responders),[2]; five patients,four of the five patients
same,Patients with more than 75% reduction in seizure frequency compared to baseline,[2]; five patients,three
same,Effect on number of seizures associated with Rett syndrome,"[2]; five patients, open label",significantly reduce the number of seizures
same,Effect on frequency of seizure types,"[2]; focal motor/non-motor with impairment, generalised motor/non-motor, unknown onset motor, non-motor and other types",effective in reducing the frequency of all seizure types; also recorded: significant reduction in specific seizure types
same,Patients with focal seizures with impairment who experienced a reduction in their seizures,[2]; four patients (patient 1-4) suffered from focal seizures with impairment,three (patients 1-3) of these patients experienced a reduction
same,Patients with generalised seizures who experienced a reduction in these seizures,[2]; three patients (patients 3-5) suffered from generalised seizures,all three experienced a reduction
same,Behavioural alterations,[3]; reference 2,rescue the behavioural alterations
same,Memory deficits,[3]; reference 3,rescued memory deficits
same,Neurological and motor defects,[3]; reference 3,delayed the appearance of neurological and motor defects
same,Effect on pilocarpine-induced seizures,[4],did not have any effect
same,Seizure suppression,[5],did not suppress seizures
same,Seizure suppression,[6],did not suppress seizures
same,Bodyweight and survival,[7],reduce the decrease in bodyweight and survival
same,General condition and symptoms of mobility and breathing,[7],improved general condition and symptoms of mobility and breathing
